Measured values reported in patent US20230263742A1, “A LIPID” (Stemirna Therapeutics Co., Ltd., priority 2021, published 2023).

Tests used:
cells = assay: Cytotoxicity, CCK-8 cell viability; type: cell-based; details: 200 ng LNP, 24 h, CCK-8, vs cells blank
Protocol: Evaluation method of cytotoxicity: 200 ng of LNP samples were mixed with cells and incubated for 24 h, then the viability was detected using CCK-8 cell viability detection kit. 10 μl of CCK-8 detection reagent was added to the transfected cells and the OD value was detected using a microplate reader at a detection wavelength of 450 nm. The cell viability percentage is obtained by comparing the OD value with that of the cells blank.

C2C12 cells = assay: In vitro cell Luc expression, C2C12; type: cell-based; details: 100 ng Luc mRNA-LNP, 24 h
Protocol: (§1) In vitro cell expression evaluation method: C2C12 cells, HepG2 cells, A20 cells were cultured, and 100,000 cells per well were plated on a 96-well plate. 100 ng of LNP samples were mixed with the cells and incubated for 24 hours (n=3), and then the expression was detected using luciferase quantitative kit 24 h after administration.

HepG2 cells = assay: In vitro cell Luc expression, HepG2; type: cell-based; details: 100 ng Luc mRNA-LNP, 24 h
Protocol: as §1

A20 cells = assay: In vitro cell Luc expression, A20; type: cell-based; details: 100 ng Luc mRNA-LNP, 24 h
Protocol: as §1

Balb/C mice [1] = assay: In vivo Luc expression after tail vein injection of Luc mRNA-LNP; details: 5 μg Luc mRNA-LNP tail vein, 6 hours
Protocol: In vivo expression evaluation method: 5 μg Luc (luciferase) mRNA-LNP solution of SW-II-118, SW-120, or SW-121 were injected into the tail vein of Balb/C mice. 6 hours after the administration, the mice are injected 0.15 mg/kg of […] substrate intraperitoneally. Within 15 minutes after the injection of the substrate, the fluorescence signal intensity was tested under a small animal in vivo imaging instrument.

Balb/C mice [2] = assay: In vivo Luc expression after intramuscular injection, compared with MC3 (Example 4); details: 5 μg Luc mRNA-LNP (DSPC) intramuscularly, Balb/C mice n=3, 6 hours; for in vivo Luc expressions (FIG. 2): compared with MC3
Protocol: The mRNA nanoparticle compositions of SW-II-118, SW-120, and SW-121 were prepared according to the method provided in Example 3. The ratios of the lipids were 50:10:38.5:1.5 mol % for cationic lipid: DSPC: cholesterol: PEG-DMG. The cationic lipid MC3 was a current standard in the art. Accordingly, the standard MC3 formulation including 50 mol % MC3, 10 mol % DSPC, 38.5 mol % cholesterol, and 1.5 mol % PEG-DMG was used as a reference for this study.
5 μg of Luc mRNA-LNP of MC3, SW-II-118, SW-II-120, or SW-II-121 was intramuscularly injected into Balb/C mice (n=3). 6 hours after the administration, the mice were injected intraperitoneally with 0.15 mg/kg […] substrate. 15 minutes after the injection of the substrate, the fluorescence signal intensity was tested under a small animal in vivo imaging instrument.

Balb/C mice [3] = assay: Luc expression in injection site and liver site after intramuscular administration (Example 5); type: in vivo; details: 5 μg Luc mRNA-LNP (DSPC) intramuscularly, Balb/C mice n=3, 6 h
Protocol: Further bioluminescence studies were performed to investigate the delivery efficiency of nanoparticle compositions including various lipid compounds according to the present invention. The formulations containing reference cationic lipid M62, M63, M118, and M119 (corresponding to Compound 62, 63, 118, and 119 in PCT/US2018/022717 (WO2018/170306), respectively) were evaluated for comparison. Nanoparticle compositions including DSPC as an optimized phospholipid, cholesterol as a structural lipid, PEG-DMG as a PEG lipid, an RNA, and a compound above mentioned were prepared according to or via methods similar to those described in Examples 1 and 2. The ratios of the lipids were 50:10:38.5:1.5 mol % for the lipid of the present invention: DSPC: cholesterol: PEG-DMG. 5 μg of LNP solution containing luciferase mRNA was administered intramuscularly to Balb/C mice (n=3). 6 hours after administration, mice were injected intraperitoneally with 0.15 mg/kg of D-luciferin substrate. Within 15 minutes after the injection of the substrate, the fluorescence signal intensity in injection site and liver site were tested under a small animal in vivo imaging instrument. Tables 3-4 summarize the fluorescence signal intensity of the nanoparticle compositions including present invention lipids and the reference compounds in injection site and liver site.

Structure (SMILES) | Viability (%) (cells; phospholipid DAPC) | Viability (%) (cells; phospholipid DMPE) | Viability (%) (cells; phospholipid DOPE) | Viability (%) (cells; phospholipid DPPC) | Viability (%) (cells; phospholipid DPPE) | Viability (%) (cells; phospholipid DSPC) | Viability (%) (cells; phospholipid DSPE) | C2C12 cell, in vitro expression (C2C12 cells; phospholipid DAPC) | C2C12 cell, in vitro expression (C2C12 cells; phospholipid DMPE) | C2C12 cell, in vitro expression (C2C12 cells; phospholipid DOPE) | C2C12 cell, in vitro expression (C2C12 cells; phospholipid DPPC) | C2C12 cell, in vitro expression (C2C12 cells; phospholipid DPPE) | C2C12 cell, in vitro expression (C2C12 cells; phospholipid DSPC) | C2C12 cell, in vitro expression (C2C12 cells; phospholipid DSPE) | HepG2 cell, in vitro expression (HepG2 cells; phospholipid DAPC) | HepG2 cell, in vitro expression (HepG2 cells; phospholipid DMPE) | HepG2 cell, in vitro expression (HepG2 cells; phospholipid DOPE) | HepG2 cell, in vitro expression (HepG2 cells; phospholipid DPPC) | HepG2 cell, in vitro expression (HepG2 cells; phospholipid DPPE) | HepG2 cell, in vitro expression (HepG2 cells; phospholipid DSPC) | also measured
CCCCCCCCC(CCCCCCCC)OC(=O)CCCCCCCN(CCO)CCCCCCCC(=O)OCCc1ccc(CCCCCCC)cc1 [SW-II-121] | 111.1 | 108.5 | 107.5 | 109.64 | 108.0 | 123.3 | 137.0 | 24183 | 219379.5 | 1003834.5 | 93988 | 246921 | 93333 | 41556.5 | 3110 | 16466 | 42994.5 | 16064 | 25349.5 | 7932 | HepG2 cell, in vitro expression (HepG2 cells; phospholipid DSPE): 1211.5; A20 cell, in vitro expression (A20 cells; phospholipid DAPC): 1744.5; A20 cell, in vitro expression (A20 cells; phospholipid DMPE): 9110.5; A20 cell, in vitro expression (A20 cells; phospholipid DOPE): 4244.5; A20 cell, in vitro expression (A20 cells; phospholipid DPPC): 9098; A20 cell, in vitro expression (A20 cells; phospholipid DPPE): 27832; A20 cell, in vitro expression (A20 cells; phospholipid DSPC): 8006.5; A20 cell, in vitro expression (A20 cells; phospholipid DSPE): 508.5; In vivo expression (Balb/C mice [1]; phospholipid DAPC): 156336666.7 p/sec/cm^2/sr; In vivo expression (Balb/C mice [1]; phospholipid DMPE): 78216666.7 p/sec/cm^2/sr; In vivo expression (Balb/C mice [1]; phospholipid DOPE): 47516666.7 p/sec/cm^2/sr; In vivo expression (Balb/C mice [1]; phospholipid DPPC): 36323333.3 p/sec/cm^2/sr; In vivo expression (Balb/C mice [1]; phospholipid DPPE): 46183333.3 p/sec/cm^2/sr; In vivo expression (Balb/C mice [1]; phospholipid DSPC): 12494333.3 p/sec/cm^2/sr; In vivo expression (Balb/C mice [1]; phospholipid DSPE): 19344666.7 p/sec/cm^2/sr; Luc expression in liver site compared with injection site (FIG. 2) (Balb/C mice [2]): higher than that in injection site; in vivo Luc expressions (FIG. 2) (Balb/C mice [2]): higher than that of MC3; Luc expression in injection site, I.M. injection site, 6 h (ratio relative to SW-II-134-3 set as 1) (Balb/C mice [3]): 1.440; Luc expression in liver site, Liver site upon I.M., 6 h (ratio relative to SW-II-137-1 set as 1) (Balb/C mice [3]): 2.150
CCCCCCCCC(CCCCCCCC)OC(=O)CCCCCCCN(CCO)CCCCCCCC(=O)OCCc1ccc(CCCCCC)cc1 [SW-II-120] | 99.0 | 87.9 | 115.0 | 102.9 | 107.1 | 102.3 | 97.9 | 17847.5 | 228078.5 | 815187.5 | 147377.5 | 471290.5 | 44819 | 51132.5 | 4555.5 | 31448.5 | 83649.5 | 24199.5 | 57343 | 13068 | HepG2 cell, in vitro expression (HepG2 cells; phospholipid DSPE): 2482; A20 cell, in vitro expression (A20 cells; phospholipid DAPC): 1764; A20 cell, in vitro expression (A20 cells; phospholipid DMPE): 37055.5; A20 cell, in vitro expression (A20 cells; phospholipid DOPE): 3578; A20 cell, in vitro expression (A20 cells; phospholipid DPPC): 7015; A20 cell, in vitro expression (A20 cells; phospholipid DPPE): 54823; A20 cell, in vitro expression (A20 cells; phospholipid DSPC): 8101.5; A20 cell, in vitro expression (A20 cells; phospholipid DSPE): 1599; In vivo expression (Balb/C mice [1]; phospholipid DAPC): 39073333.3 p/sec/cm^2/sr; In vivo expression (Balb/C mice [1]; phospholipid DMPE): 49736666.7 p/sec/cm^2/sr; In vivo expression (Balb/C mice [1]; phospholipid DOPE): 5083666.7 p/sec/cm^2/sr; In vivo expression (Balb/C mice [1]; phospholipid DPPC): 21307300.0 p/sec/cm^2/sr; In vivo expression (Balb/C mice [1]; phospholipid DPPE): 7056000.0 p/sec/cm^2/sr; In vivo expression (Balb/C mice [1]; phospholipid DSPC): 58040000.0 p/sec/cm^2/sr; In vivo expression (Balb/C mice [1]; phospholipid DSPE): 128056666.7 p/sec/cm^2/sr; Luc expression in liver site compared with injection site (FIG. 2) (Balb/C mice [2]): higher than that in injection site; in vivo Luc expressions (FIG. 2) (Balb/C mice [2]): higher than that of MC3; Luc expression in injection site, I.M. injection site, 6 h (ratio relative to SW-II-134-3 set as 1) (Balb/C mice [3]): 1.064; Luc expression in liver site, Liver site upon I.M., 6 h (ratio relative to SW-II-137-1 set as 1) (Balb/C mice [3]): 1.318
